What was measured:
[1] = test system: clinical isolates containing an I50L substitution (and their baseline isolates); assay: PhenoSense phenotypic susceptibility of clinical isolates from ATV-treated patients who developed I50L; assay type: cell-based, HIV-1; details: for median increase in susceptibility from baseline: on emergence of I50L, n=4 to 15; for percentage of I50L isolates with susceptibility (FC) 0.4-fold or lower: relative to the reference strain; for Subceptibility, Fold Change in EC50 relative to reference strain: Subject 169, Week 114
Source text: Study Population. Viral samples (baseline and on-treatment, where available) were obtained from patients who experienced virologic failure while enrolled in studies AI424-007/041 [12] (ATV+d4T and ddI), AI424-008/044 [13, 14] (ATV+d4T and 3TC) and AI424-034 [9] (ATV or EFV in combination with ZDV and 3TC). […] In general, virologic failure specimens were selected for further resistance evaluation only if they contained >1,000 copies/mL HIV-1 RNA and there was no indication that the specimen came from a patient at a time of transient non-adherence to study drug(s). […] For non-responders, samples from week 16 (or 24) were tested. Drug adherence was determined from pill counts of returned study medications at each scheduled visit.
(§1) Drug Susceptibility Assays. Clinical isolates were subjected to phenotypic (PhenoSense™) and genotypic (GeneSeq™) analysis by Virologic, Inc. as described elsewhere.

[2] = test system: HIV-1 variants containing I50V; details: in vitro; cited from earlier work
[3] = test system: recombinant HIV-1 viruses (NL4-3, RF, LAI) in MT-2 cells; assay: MT-2 cell susceptibility assay of recombinant viruses; assay type: cell-based; details: all three viral strains, I50L or I50L/A71V introduced by site-directed mutagenesis
Method: Cells and Viruses. MT-2 cells, HIV-1 RF, HIV1-LAI, and the HIV-1 NL4-3 proviral clones were obtained through the AIDS Research and Reference Reagent Program, National Institutes of Health. MT-2 cells were cultured in RPMI 1640 medium supplemented with 10% fetal bovine serum, 2 mM L-glutamine, and 10 mM Hepes buffer. HIV-1 viruses were generated by transient transfection of the proviral DNA into Human Embryonic Kidney 293 cells using Lipofectamine reagents (Gibco BRL). The viruses were harvested 72 hr post-transfection, amplified in MT-2 cells, and titered in the same cells using a virus yield assay.
Recombinant HIV-1 Variants and Chimeric NL4-3 Proviral Clones. HIV-1 strains with defined substitutions in the protease gene were generated by QuikChange® site-directed mutagenesis as recommended by the manufacturer (Stratagene). Recombinant NL4-3 and LAI proviral clones containing the wild-type and mutant protease genes from RF and clinical isolates were constructed by replacing the SseI/ApaI fragment of pNL4-3 with the appropriate SseI/ApaI protease fragments.
Recombinant viruses (generated separately from those made for PhenoSense assays) were tested in an MT-2 cell susceptibility assay at Bristol Myers Squibb. MT-2 cells were infected with recombinant viruses at a multiplicity of infection (MOI) of 0.005 50% tissue culture infective doses (TCID50)/cell followed by incubation in the presence or absence of serially diluted protease inhibitors for 4 to 7 days. Virus yields were quantified using a RT assay as previously described. The results from at least four independent experiments were used to calculate the EC50.

[4] = test system: clinical isolates from patients on NFV regimens; details: isolates containing D30N as the only primary PI mutation; cited from earlier work
[5] = test system: clinical isolates containing a D30N substitution; assay: PhenoSense phenotypic susceptibility of clinical isolates containing D30N; assay type: cell-based, HIV-1; details: 75 D30N containing isolates, FIG. 3
Method: as §1
Comparative Studies of I50L and D30N Containing Viruses. […] Comparative studies were performed on the 18 phenotyped viruses containing an I50L and 75 clinical isolates containing a D30N substitution without evidence of cross-resistance (FC≧2.5) to other PIs.

| Structure (SMILES) | Susceptibility, Fold Change in EC50 relative to reference strain ([1]; Subject 076, Week 80) [Fold Change] | Susceptibility, Fold Change in EC50 relative to reference strain ([1]; Subject 076, Week 92) [Fold Change] | percentage of baseline isolates exhibiting a FC≦0.4 [1] [%] | median increase in susceptibility from baseline [1] [fold] | percentage of I50L isolates with susceptibility (FC) 0.4-fold or lower [1] [%] | median FC [1] | effect of I50V on susceptibility [2] | change in susceptibility [3] | susceptibility [4] | Susceptibility, Fold Change in EC50 relative to reference strain ([1]; Subject 100, Week 1.7) [Fold Change] | Susceptibility, Fold Change in EC50 relative to reference strain ([1]; Subject 169, Week 0.1) [Fold Change] | Susceptibility, Fold Change in EC50 relative to reference strain ([1]; Subject 169, Week 90) [Fold Change] | Susceptibility, Fold Change in EC50 relative to reference strain ([1]; Subject 169, Week 102) [Fold Change] | Subceptibility, Fold Change in EC50 relative to reference strain [1] [Fold Change] | Susceptibility, Fold Change in EC50 relative to reference strain ([1]; Subject 362, Week 0.1) [Fold Change] | Susceptibility, Fold Change in EC50 relative to reference strain ([1]; Subject 362, Week 108) [Fold Change] | median FC [5] |
| --- | --- | --- | --- | --- | --- | --- | --- | --- | --- | --- | --- | --- | --- | --- | --- | --- | --- |
| Cc1cccc(C)c1OCC(=O)N[C@@H](Cc1ccccc1)[C@@H](O)C[C@H](Cc1ccccc1)NC(=O)[C@H](C(C)C)N1CCCNC1=O [LPV, lopinavir] | 0.6 | 0.5 | 0 | 3.2 | 100 | ≤ 0.4 | reduced susceptibility | enhanced susceptibility | – | – | – | – | – | – | – | – | – |
| CC(C)(C)NC(=O)[C@@H]1CN(Cc2cccnc2)CCN1C[C@@H](O)C[C@@H](Cc1ccccc1)C(=O)N[C@H]1c2ccccc2C[C@H]1O [IDV, indinavir] | 0.4 | 0.5 | 0 | 2.0 | 58 | ≤ 0.4 | increased susceptibility | enhanced susceptibility | remained susceptible | 1.6 | 0.8 | 0.5 | 0.4 | 0.4 | 1.3 | 0.7 | small median decreases in susceptibility |
| CC(C)c1nc(CN(C)C(=O)N[C@H](C(=O)N[C@@H](Cc2ccccc2)C[C@H](O)[C@H](Cc2ccccc2)NC(=O)OCc2cncs2)C(C)C)cs1 [RTV, ritonavir] | 0.3 | 0.3 | 10 | 4.1 | 83 | ≤ 0.4 | reduced susceptibility | enhanced susceptibility | remained susceptible | 2.2 | 1.5 | 0.3 | 0.3 | 0.4 | 1.1 | 0.4 | – |
